Where two headings read alike, the source gives them in different places.
Columns and labels:
[1] = system: carrageenan-induced edema; assay: Carrageenan-induced edema inhibiting effect of betamethasone valerate ointment; type: in vivo; settings: rat paw, 0.15 part betamethasone valerate, 9.85 parts enhancer, vs gel ointment base
Method: The carrageenan-induced edema inhibiting effect of the ointment was examined in accordance with the method of E. Passarella [Arzneim, Forsch. 30 (I), No. 4, pages 647-651 (1980)]. Specifically, 0.1 ml of a 1% carrageenan suspension in 0.9% NaCl solution was injected into the tip of the right paw of each rat (body weight 150-175 g). The volume of the paw was measured before the administation of carrageenan and 3, 5 and 6 hours after the carrageenan administration by a mercury displacement device. The ointment was well rubbed into the inflamed site in an amount of 100 mg.
These ointments were applied to the tip of the paw, and their edema inhibiting effects were examined.
The percent edema inhibitions were calculated on the basis of the edema formation ratio of a rat to which only the gel ointment base was administered.

[2] = Drug diffusion through egg shell membrane in diffusion cell with dodecyl L-pyroglutamate; settings: control without enhancer = 100; drug 0.05%, dodecyl L-pyroglutamate 1.0% in donor side, 37° C
serum calcium level = type: in vivo
Method: This nasal drop contained 15 units/50 microliters of calcitonin. The nasal drop in a dose of 50 microliters was administered to the nasal cavity of a New Zealand rabbit (clean). The calcium concentration in the serum after administration was measured by using a calcium measuring kit (Iatoron Co.).
They were individually administered to the nasal cavity of a rabbit, and the concentration of calcium in the serum was measured.

SMILES	Edema inhibition ([1]; 3 hrs.) [%]	Edema inhibition ([1]; 6 hrs.) [%]	Edema inhibition ([1]; 9 hrs.) [%]	Relative amount of permeation after 30 minutes [2]	Percent decrease of the serum calcium level from that before administration (serum calcium level; 1 h) [%]	Percent decrease of the serum calcium level from that before administration (serum calcium level; 2 h) [%]	Percent decrease of the serum calcium level from that before administration (serum calcium level; 3 h) [%]	Percent decrease of the serum calcium level from that before administration (serum calcium level; 5 h) [%]
CCCCCCCCCCCCCCCCCCCCOC(=O)[C@@H]1CCC(=O)N1 [Eicosanyl L-pyroglutamate]	9.3	10.5	15.6					
CN(C)CCCN1c2ccccc2Sc2ccc(Cl)cc21 [Chlorpromazine]				124				
CCCCCCCCCCCCOC(=O)[C@@H]1CCC(=O)N1 [Compound (116), Dodecyl L-pyroglutamate]	19.8	40.2	40.3					
CCCCCCOC(=O)[C@@H]1CCC(=O)N1 [Hexyl L-pyroglutamate]	10.0	11.5	13.8					
CCCCCCCCCCCCCOC(=O)[C@@H]1CCC(=O)N1 [Compound (118), Tridecyl L-pyroglutamate]	20.0	38.5	36.8					
O=C(O)c1ccccc1O [Salicyclic acid]				208				
CC1CCC(C(C)C)C(OC(=O)[C@@H]2CCC(=O)N2)C1 (stereo partly drawn) [Compound (308), Menthyl L-pyroglutamate]	17.0	38.0	40.2					
CCCCC[C@H](O)/C=C/[C@@H]1[C@@H](C/C=C\CCCC(=O)O)[C@@H](O)C[C@H]1O [Prostaglandin F2]				166				
CCCCCCCOC(=O)C1CCC(=O)N1 (racemic) [Heptyl DL-pyroglutamate]	10.7	10.9	9.5					
COc1ccc2c(c1)c(CC(=O)O)c(C)n2C(=O)c1ccc(Cl)cc1 [Indomethacin]				220				
CCCCCCCCCCCCCCOC(=O)C1CCC(=O)N1 (racemic) [Compound (110), Tetradecyl DL-pyroglutamate]	17.4	38.0	38.6					
CCCCCCCCCCCCCCCCCCCCOC(=O)C1CCC(=O)N1 (racemic) [Eicosanyl DL-pyroglutamate]	9.2	11.1	16.7					
CCOC(=O)C1CCC(=O)N1 (racemic) [Ethyl DL-pyroglutamate]	9.5	10.2	12.1					
C[C@](N)(Cc1ccc(O)c(O)c1)C(=O)O [Methyldopa]				153				
O=C1CC[C@@H](C(=O)O)N1 [L-Pyroglutamic acid]	10.3	11.2	16.3		1.9	0.7	0	0
CC1(C)C2CCC1(C)C(OC(=O)[C@@H]1CCC(=O)N1)C2 (stereo partly drawn) [Compound (310), Bornyl L-pyroglutamate]	17.0	39.4	40.2					
CCCCCCCOC(=O)[C@@H]1CCC(=O)N1 [Heptyl L-pyroglutamate]	9.3	12.8	13.7					

SMILES	Edema inhibition ([1]; 3 hrs.) [%]	Edema inhibition ([1]; 6 hrs.) [%]	Edema inhibition ([1]; 9 hrs.) [%]	Relative amount of permeation after 30 minutes [2]	Percent decrease of the serum calcium level from that before administration (serum calcium level; 1 h) [%]	Percent decrease of the serum calcium level from that before administration (serum calcium level; 2 h) [%]	Percent decrease of the serum calcium level from that before administration (serum calcium level; 3 h) [%]	Percent decrease of the serum calcium level from that before administration (serum calcium level; 5 h) [%]
CCC=CCCCCCCCCOC(=O)[C@@H]1CCC(=O)N1 [Compound (220), 9-Dodecenyl L-pyroglutamate]	18.3	37.7	36.9					
CCCCCCCCCCCCCCCCCCOC(=O)C1CCC(=O)N1 (racemic) [Octadecyl DL-pyroglutamate]	9.6	13.0	15.6					
CCCCCCCCCCOC(=O)[C@@H]1CCC(=O)N1 [Compound (112), Decyl L-pyroglutamate]	18.6	38.9	37.4					
CCCCCCCCCCCCCCOC(=O)[C@@H]1CCC(=O)N1 [Compound (120), Tetradecyl L-pyroglutamate]	17.8	38.5	39.6					
COC1=CC(=O)C[C@@H](C)[C@]12Oc1c(Cl)c(OC)cc(OC)c1C2=O [Griseofulvin]				221				
CCCCCCCCCCCCCCCCCOC(=O)C1CCC(=O)N1 (racemic) [Heptadecyl DL-pyroglutamate]	10.5	12.8	14.8					
CCOC(=O)[C@@H]1CCC(=O)N1 [Ethyl L-pyroglutamate]	10.4	12.7	17.2					
CCCCCCOC(=O)C1CCC(=O)N1 (racemic) [Hexyl DL-pyroglutamate]	11.2	11.5	11.0					
CCCCCCCCCCOC(=O)C1CCC(=O)N1 (racemic) [Compound (102), Decyl DL-pyroglutamate]	16.3	39.7	38.3					
O=C1CCC(C(=O)O)N1 (racemic) [DL-Pyroglutamic acid]	10.8	11.4	15.2		2.0	1.0	0	0
CCCCCCCCCCCCCCCCCOC(=O)[C@@H]1CCC(=O)N1 [Heptadecyl L-pyroglutamate]	11.2	10.6	16.5					
CCCCCCCCCCCCOC(=O)C1CCC(=O)N1 (racemic) [Compound (106), Dodecyl DL-pyroglutamate]	17.4	40.1	40.0					
CCCCCCCCCCCOC(=O)C1CCC(=O)N1 (racemic) [Compound (104), Undecyl DL-pyroglutamate]	20.3	40.1	35.4					
C[C@]12CC[C@@H]3c4ccc(O)cc4CC[C@H]3[C@@H]1CC[C@@H]2O [Estradiol]				203				
CCCCCCCCCCCOC(=O)[C@@H]1CCC(=O)N1 [Compound (114), Undecyl L-pyroglutamate]	20.2	38.5	37.3					
CCCCCCCCCCCCCCCCCCOC(=O)[C@@H]1CCC(=O)N1 [Octadecyl L-pyroglutamate]	10.0	11.4	14.4					
CCCCCCCCCCCCCOC(=O)C1CCC(=O)N1 (racemic) [Compound (108), Tridecyl DL-pyroglutamate]	18.8	35.3	38.1					
